Experimental data reported in patent US11111251B2, “Positive allosteric modulators of the muscarinic acetylcholine receptor M1” (Vanderbilt University, priority 2016, dated 2021).
Read-outs that look alike come from different tables or passages of the source.

Target: T1, human mAChR M1 (Homo sapiens, UniProt P11229)
T1 sequence (P11229 1-460): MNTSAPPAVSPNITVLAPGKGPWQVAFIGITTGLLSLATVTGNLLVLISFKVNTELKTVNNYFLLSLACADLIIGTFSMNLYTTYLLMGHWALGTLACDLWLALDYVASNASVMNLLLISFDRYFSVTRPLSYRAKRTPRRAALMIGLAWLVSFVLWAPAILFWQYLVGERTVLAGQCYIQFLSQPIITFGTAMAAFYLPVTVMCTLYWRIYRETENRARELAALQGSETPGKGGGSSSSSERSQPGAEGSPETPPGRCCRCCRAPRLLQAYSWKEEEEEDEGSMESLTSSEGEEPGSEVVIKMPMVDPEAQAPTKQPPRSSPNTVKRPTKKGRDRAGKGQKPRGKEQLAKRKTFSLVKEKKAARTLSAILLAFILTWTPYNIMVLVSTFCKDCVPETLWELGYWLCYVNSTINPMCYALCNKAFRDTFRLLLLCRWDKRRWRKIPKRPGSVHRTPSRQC
Assay: mAChR M1 cell-based functional assay: calcium mobilization, positive allosteric modulator mode (increase in EC20 acetylcholine response)
Details: for Emax: read-out: Human M1 Emax (%)
In short: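 Calcium-flux assay in CHO-K1 cells stably expressing human M1, loaded with Fluo-4 AM (50 min, 37 °C) and read at 1 Hz. Compound (11-point, 1:3 series) was added at 4 s, EC20 acetylcholine at 144 s and EC80 at 230 s. PAM activity is the concentration-dependent rise in the EC20 response, fitted with a four-parameter logistic.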

[1] = Table 2, human M1, read-out: Human M1 EC50
[2] = Table 1, mAChR M1 cell-based functional assay, PAM mode, species not given, read-out: EC50

SMILES	EC50 [1]	Emax (Table 2, human M1)	EC50 [2]
Cc1ncc(Cc2cc(C(=O)N[C@@H]3CCC[C@H]3O)nc3ccsc23)cn1 [Compound 125]	> 10000 nM	59.1%	
Cc1nc(-c2ccc(Cc3cc(C(=O)N[C@H]4CCCCC[C@@H]4O)nc4ccsc34)cc2)cs1 [Compound 196, N-[(1S,2S)-2-hydroxycycloheptyl]-7-[[4-(2-methylthiazol-4-yl)phenyl]methyl]thieno[3,2-b]pyridine-5-carboxamide]	234 nM	81.3%	
Cc1ccc(Cc2cc(C(=O)NC3CCCCCC3(C)O)nc3ccsc23)cn1 (centres unmarked) [Compound 235, N-(2-hydroxy-2-methyl-cycloheptyl)-7-[(6-methyl-3-pyridyl)methyl]thieno[3,2-b]pyridine-5-carboxamide]	1010 nM	71.1%	
Cn1cc2c(-c3cc(F)c(Cc4cc(C(=O)N[C@H]5CCCC[C@@H]5O)nc5ccsc45)c(F)c3)cccc2n1 [Compound 41, 7-[[2,6-difluoro-4-(2-methylindazol-4-yl)phenyl]methyl]-N-[(1S,2S)-2-hydroxycyclohexyl]thieno[3,2-b]pyridine-5-carboxamide]			3640 nM
CC(C)(C)N1CC(NC(=O)c2cc(Cc3ccc(-c4cscn4)cc3)c3sccc3n2)C1 [Compound 203, N-(1-tert-butylazetidin-3-yl)-7-[(4-thiazol-4-ylphenyl)methyl]thieno[3,2-b]pyridine-5-carboxamide]	2200 nM	75.3%	
O=C(N[C@@H]1CCCCC[C@H]1O)c1cc(Cc2ccc(C(F)(F)F)nc2)c2sccc2n1 [Compound 94]	1250 nM	84.6%	
CO[C@@H]1CCCC[C@H]1NC(=O)c1cc(Cc2ccc(C(F)(F)F)nc2)c2sccc2n1 [Compound 93, N-[(1R,2R)-2-methoxycyclohexyl]-7-[[6-(trifluoromethyl)-3-pyridyl]methyl]thieno[3,2-b]pyridine-5-carboxamide]	6720 nM	70.3%	
O=C(N[C@H]1CCOC1)c1cc(Cc2ccc(-c3cscn3)cc2)c2sccc2n1 [Compound 208, N-[(3S)-tetrahydrofuran-3-yl]-7-[(4-thiazol-4-ylphenyl)methyl]thieno[3,2-b]pyridine-5-carboxamide]	1880 nM	80.3%	
CO[C@H]1CCCC[C@@H]1NC(=O)c1cc(Oc2ccc(C)nc2)c2sccc2n1 [Compound 24, N-[(1S,2S)-2-methoxycyclohexyl]-7-[(6-methyl-3-pyridyl)oxy]thieno[3,2-b]pyridine-5-carboxamide]			> 10000 nM
Cc1ccc(Oc2cc(C(=O)N[C@@H]3CC[C@H]3O)nc3ccsc23)cn1 [Compound 16]			> 10000 nM
Cc1ccc(Oc2cc(C(=O)NC(CO)c3ccccc3)nc3ccsc23)cn1 (centres unmarked) [Compound 27, N-(2-hydroxy-1-phenyl-ethyl)-7-[(6-methyl-3-pyridyl)oxy]thieno[3,2-b]pyridine-5-carboxamide]			> 10000 nM
Cn1cc(-c2ccc(Oc3cc(C(=O)N[C@H]4CCC[C@@H]4O)nc4ccsc34)c(F)c2)cn1 [Compound 6]			> 10000 nM
O=C(N[C@H]1CCCOC1)c1cc(Cc2ccc(-c3cscn3)cc2)c2sccc2n1 [Compound 213, N-([3S)-tetrahydropyran-3-yl]-7-[(4-thiazol-4-ylphenyl)methyl]thieno[3.2-b]pyridine-5-carboxamide]	1120 nM	61.2%	
Cc1nc(-c2ccc(Cc3cc(C(=O)NC4CCCCNC4=O)nc4ccsc34)cc2)co1 (centres unmarked) [Compound 172, 7-[[4-(2-methyloxazol-4-yl)phenyl]methyl]-N-(2-oxoazepan-3-yl)thieno[3,2-b]pyridine-5-carboxamide]	685 nM	88.8%	
Cc1ccc(Cc2cc(C(=O)NC3CCCCC3)nc3c(C)csc23)cn1 [Compound 101, N-cyclohexyl-3-methyl-7-[(6-methyl-3-pyridyl)methyl]thieno[3,2-b]pyridine-5-carboxamide]	4960 nM	75.7%	
Cn1cc(-c2ccc(Cc3cc(C(=O)N[C@H]4COCC[C@@H]4O)nc4ccsc34)c(F)c2)cn1 [Compound 53, 7-[[2-fluoro-4-(1-methylpyrazol-4-yl)phenyl]methyl]-N-[(3S,4S)-4-hydroxytetrahydropyran-3-yl]thieno[3,2-b]pyridine-5-carboxamide]	3070 nM	79%	
O=C(N[C@@H]1COCC[C@H]1O)c1cc(Cc2ccc(-n3cccn3)cc2)c2sccc2n1 [Compound 75, N-[(3R,4R)-4-hydroxytetrahydropyran-3-yl]-7-[(4-pyrazol-1-ylphenyl)methyl]thieno[3,2-b]pyridine-5-carboxamide]	22.1 nM	90.1%	
O=C(NC1COC1)c1cc(Cc2ccc(-c3cscn3)cc2)c2sccc2n1 [Compound 202, N-(oxetan-3-yl)-7-[(4-thiazol-4-ylphenyl)methyl]thieno[3,2-b]pyridine-5-carboxamide]	1370 nM	63.7%	

The next lines start with the values.

EC50 [1]	Emax (Table 2, human M1)	EC50 [2]	SMILES
5020 nM	52.2%		Cn1ncc2nc(C(=O)NCC3CCO3)cc(Cc3ccc(-c4cscn4)cc3)c21 (centres unmarked) [Compound 494, 1-methyl-N-(oxetan-2-ylmethyl)-7-[(4-thiazol-4-ylphenyl)methyl]pyrazolo-[4,3-b]pyridine-5-carboxamide]
6.89 nM	71%		Cn1ccc2nc(C(=O)N[C@H]3CCOC[C@@H]3O)cc(Cc3ccc(-c4cscn4)cc3)c21 [Compound 450, N-[(3R,4S)-3-hydroxytetrahydropyran-4-yl]-1-methyl-7-[(4-thiazol-4-ylphenyl)methyl]pyrrolo[3,2-b]pyridine-5-carboxamide]
412 nM	58.7%		CC1CC(NC(=O)c2cc(Cc3ccc(-c4ccn(C)n4)nc3)c3sccc3n2)CC(C)O1 (centres unmarked) [Compound 377, N-(2,6-dimethyltetrahydropyran-4-yl)-7-[[6-(1-methylpyrazol-3-yl)-3-pyridyl]methyl]thieno[3,2-b]pyridine-5-carboxamide]
> 10000 nM	42.1%		Cc1nn(C)cc1-c1ccc(Cc2cc(C(=O)N[C@H]3COCC[C@@H]3O)nc3ccsc23)cc1 [Compound 249, 7-[[4-(1,3-dimethylpyrazol-4-yl)phenyl]methyl]-N-[(3S,4S)-4-hydroxytetrahydropyran-3-yl]thieno[3,2-b]pyridine-5-carboxamide]
91.3 nM	70.8%		Cn1ccc(-c2ccc(Cc3cc(C(=O)N[C@H]4CCCC[C@@H]4O)nc4ccn(C)c34)cn2)n1 [Compound 512, N-[(1S,2S)-2-hydroxycyclohexyl]-1-methyl-7-[[6-(1-methylpyrazol-3-yl)-3-pyridyl]methyl]pyrrolo[3,2-b]pyridine-5-carboxamide; and]
475 nM	82.3%		Cc1csc2c(Cc3ccc(-n4cccn4)cc3)cc(C(=O)NC3CC4(COC4)C3)nc12 [Compound 315, 3-methyl-N-(2-oxaspiro[3.3]heptan-6-yl)-7-[(4-pyrazol-1-ylphenyl)methyl]thieno[3,2-b]pyridine-5-carboxamide]
6980 nM	60.8%		COCCNC(=O)c1cc(Cc2ccc(-c3cncs3)cc2)c2sccc2n1 [Compound 403, N-(2-methoxyethyl)-7-[(4-thiazol-5-ylphenyl)methyl]thieno[3,2-b]pyridine-5-carboxamide]
6.24 nM	53.2%		Cn1ccc2nc(C(=O)N[C@H]3CCOC[C@@H]3O)cc(Cc3ccc(-c4nccs4)cc3)c21 [Compound 478, N-[(3R,4S)-3-hydroxytetrahydropyran-4-yl]-1-methyl-7-[(4-thiazol-2-ylphenyl)methyl]pyrrolo[3,2-b]pyridine-5-carboxamide]
> 10000 nM	43.1%		CC(C)(C#N)NC(=O)c1cc(Cc2ccc(-n3cccn3)cc2)c2sccc2n1 [Compound 283, N-(1-cyano-1-methyl-ethyl)-7-[(4-pyrazol-1-ylphenyl)methyl]thieno[3,2-b]pyridine-5-carboxamide]
263 nM	71%		CC1COCCC1NC(=O)c1cc(Cc2ccc(-n3cccn3)cc2)c2sccc2n1 (centres unmarked) [Compound 444, N-(3-methyltetrahydropyran-4-yl)-7-[(4-pyrazol-1-ylphenyl)methyl]thieno[3,2-b]pyridine-5-carboxamide]
4650 nM	66.6%		Cn1ccc(-c2ccc(Cc3cc(C(=O)N[C@H]4CCOC4)nc4ccsc34)cn2)n1 [Compound 417, 7-[[6-(1-methylpyrazol-3-yl)-3-pyridyl]methyl]-N-[(3S)-tetrahydrofuran-3-yl]thieno[3,2-b]pyridine-5-carboxamide]
150 nM	53.9%		Cn1cc(-c2ccc(Cc3cc(C(=O)NC4CCOCC4(C)C)nc4ccsc34)cc2)cn1 (centres unmarked) [Compound 379, N-(3,3-dimethyltetrahydropyran-4-yl)-7-[[4-(1-methylpyrazol-4-yl)phenyl]methyl]thieno[3,2-b]pyridine-5-carboxamide]
852 nM	84.2%		CC1(C)CC(NC(=O)c2cc(Cc3ccc(-c4nccs4)cc3)c3sccc3n2)CCO1 (centres unmarked) [Compound 337]
43 nM	69.9%		O=C(NC1CC2(COC2)C1)c1cc(Cc2ccc(-n3cccn3)cc2)c2sccc2n1 [Compound 275, N-(2-oxaspiro[3.3]heptan-6-yl)-7-[(4-pyrazol-1-ylphenyl)methyl]thieno[3,2-b]pyridine-5-carboxamide]
